Structures can show the parent of a compound that is named as a salt.
What follows are molecules tested against T1, Flt-3 (Homo sapiens, UniProt P36888) (assay: Flt-3 kinase inhibition (GST-Flt-3, 33P incorporation into poly(Glu,Tyr))).
T1 construct: amino acids 563-993 of the cytoplasmic kinase domain of human Flt-3; made in house; host or cells: Sf9 insect cells (baculovirus, vector pFbacG01)
T1 sequence (P36888 563-993): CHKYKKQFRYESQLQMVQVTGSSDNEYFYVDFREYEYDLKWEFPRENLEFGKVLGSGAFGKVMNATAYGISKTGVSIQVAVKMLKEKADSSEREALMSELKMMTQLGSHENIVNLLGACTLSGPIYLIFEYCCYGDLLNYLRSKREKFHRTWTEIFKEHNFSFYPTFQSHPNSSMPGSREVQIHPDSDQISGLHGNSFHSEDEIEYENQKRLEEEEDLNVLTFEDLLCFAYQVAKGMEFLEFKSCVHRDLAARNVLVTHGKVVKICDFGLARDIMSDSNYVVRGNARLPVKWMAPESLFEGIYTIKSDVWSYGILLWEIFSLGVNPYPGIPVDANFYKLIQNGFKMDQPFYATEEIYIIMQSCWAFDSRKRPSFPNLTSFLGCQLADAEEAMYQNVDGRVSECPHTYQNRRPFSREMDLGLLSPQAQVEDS
Assay type: biochemical
Method: Flt-3 kinase inhibition is determined as follows: The baculovirus donor vector pFbacG01 (GIBCO) is used to generate a recombinant baculovirus expressing the amino acid region amino acids 563-993 of the cytoplasmic kinase domain of human Flt-3. The coding sequence for the cytoplasmic domain of Flt-3 is amplified by PCR from human c-DNA libraries (Clontech). The amplified DNA fragments and the pFbacG01 vector are made compatible for ligation by digestion with BamHI and HindIII. Ligation of these DNA fragments results in the baculovirus donor plasmid pFbacG01-Flt-3. The production of the viruses, the expression of proteins in Sf9 cells and the purification of the GST-fused proteins are performed as follows:
Production of virus: The baculovirus donor plasmid (pFbacG01-Flt-3) containing the Flt-3 kinase domain is transfected into the DH10Bac cell line (GIBCO) and the transfected cells are plated on selective agar plates. Colonies without insertion of the fusion sequence into the viral genome (carried by the bacteria) are blue. Single white colonies are picked and viral DNA (bacmid) is isolated from the bacteria by standard plasmid purification procedures. Sf9 or Sf21 cells (American Type Culture Collection) are then transfected in flasks with the viral DNA using Cellfectin reagent.
Protein expression in Sf9 cells: Virus containing media is collected from the transfected cell culture and used for infection to increase its titre. Virus containing media obtained after two rounds of infection is used for large-scale protein expression. For large-scale protein expression 100 cm^2 round tissue culture plates are seeded with 5×10^7 cells/plate and infected with 1 mL of virus-containing media (approx. 5 MOIs). After 3 days the cells are scraped off the plate and centrifuged at 500 rpm for 5 min. Cell pellets from 10-20, 100 cm^2 plates are resuspended in 50 mL of ice-cold lysis buffer (25 mM Tris-HCl, pH 7.5, 2 mM EDTA-1% NP-40. 1 mM DTT, 1 mM PMSF). The cells are stirred on ice for 15 min and then centrifuged at 5000 rpms for 20 min.
Purification of GST-tagged protein: The centrifuged cell lysate is loaded onto a 2 mL glutathione-sepharose column (Pharmacia) and washed three times with 10 mL of 25 mM Tris-HCl, pH 7.5, 2 mM EDTA, 1 mM DTT, 200 mM NaCl. The GST-tagged protein is then eluted by 10 applications (1 mL each) of 25 mM Tris-HCl, pH 7.5, 10 mM reduced-glutathione, 100 mM NaCl, 1 mM DTT, 10% Glycerol and stored at −70° C.
Measurement of enzyme activity: Tyrosine protein kinase assays with purified GST-Flt-3 protein are carried out in a final volume of 30 μL containing 200-1800 ng of enzyme protein (depending on the specific activity), 20 mM Tris-HCl, pH 7.6, 3 mM MnCl2, 3 mM MgCl2, 1 mM DTT, 10 μM Na3VO4, 3 μg/mL poly(Glu, Tyr) 4:1, 1% DMSO, 8.0 μM ATP and 0.1 μCi [γ^33 P] ATP. The activity is assayed in the presence or absence of inhibitors, by measuring the incorporation of ^33P from [γ^33P] ATP into the poly(Glu,Tyr) substrate. The assay (30 μL) is carried out in 96-well plates at ambient temperature for 20 min and terminated by the addition of 20 μL of 125 mM EDTA. Subsequently, 40 μL of the reaction mixture is transferred onto Immobilon-PVDF membrane (Millipore, Bedford, Mass., USA) previously soaked for 5 min with methanol, rinsed with water, then soaked for 5 min with 0.5% H3PO4 and mounted on vacuum manifold with disconnected vacuum source. After spotting all samples, vacuum is connected and each well rinsed with 200 μL 0.5% H3PO4. Membranes are removed and washed 4× on a shaker with 1.0% H3PO4, once with ethanol. Membranes are counted after drying at ambient temperature, mounting in Packard TopCount 96-well frame, and addition of 10 μL/well of Microscint™ (Packard). IC50 values are calculated by linear regression analysis of the percentage inhibition of each compound in duplicate, at four concentrations (usually 0.01, 0.1, 1 and 10 μM). One unit of protein kinase activity is defined as 1 nmole of ^33P transferred from [γ3P] […]

SMILES | IC50
O=C(Nc1ccc(Oc2cc(Cl)ncn2)cc1)Nc1cc(CN2CCC2)cc(C(F)(F)F)c1 [Example 1, N-[4-(6-Chloro-pyrimidin-4-yloxy)-phenyl]-N′-[3-(azetidin-1-ylmethyl)-5-trifluoromethyl-phenyl]-urea] | 905 nM
CNc1cc(Oc2ccc(NC(=O)Nc3cc(CN4CCC4)cc(C(F)(F)F)c3)cc2)ncn1 [Example 2, N-[4-(6-Methylamino-pyrimidin-4-yloxy)-phenyl]-N′-(3-azetidin-1-ylmethyl-5-trifluoromethyl-phenyl)-urea] | 1200 nM
CC(C)N1CCN(Cc2cc(NC(=O)Nc3ccc(Oc4cc(N)ncn4)cc3)cc(C(F)(F)F)c2)CC1 [Example 8, N-[4-(6-Amino-pyrimidin-4-yloxy)-phenyl]-N′-[3-(4-isopropylpiperazin-1-ylmethyl)-5-trifluoromethyl-phenyl]-urea] | 510 nM
CN1CCN(Cc2ccc(NC(=O)Nc3ccc(Oc4cc(Cl)ncn4)cc3)cc2C(F)(F)F)CC1 [Example 14, N-[4-(6-Chloro-pyrimidin-4-yloxy)-phenyl]-N′-[4-(4-methylpiperazin-1-ylmethyl)-3-trifluoromethyl-phenyl]-urea] | 360 nM
CC(C)N1CCN(Cc2ccc(NC(=O)Nc3ccc(Oc4cc(Cl)ncn4)cc3)cc2C(F)(F)F)CC1 [Example 15, N-[4-(6-Chloro-pyrimidin-4-yloxy)-phenyl]-N′-[4-(4-isopropylpiperazin-1-ylmethyl)-3-trifluoromethyl-phenyl]-urea] | 600 nM
CNc1cc(Oc2ccc(NC(=O)Nc3ccc(CN4CCN(C(C)C)CC4)c(C(F)(F)F)c3)cc2)ncn1 [Example 16, N-[4-(6-Methylamino-pyrimidin-4-yloxy)-phenyl]-N′-[4-(4-isopropylpiperazin-1-ylmethyl)-3-trifluoromethyl-phenyl]-urea trifluoroacetate] | 360 nM
CNc1cc(Oc2ccc(NC(=O)Nc3ccc(CN4CC[N+]([O-])(C(C)C)CC4)c(C(F)(F)F)c3)cc2)ncn1 [Example 17, N-[4-(6-Methylamino-pyrimidin-4-yloxy)-phenyl]-N′-[4-(4-isopropyl-4-oxy-piperazin-1-ylmethyl)-3-trifluoromethyl-phenyl]-urea trifluoroacetate] | 940 nM
CN(Cc1ccc(NC(=O)Nc2ccc(Oc3cc(Cl)ncn3)cc2)cc1C(F)(F)F)C(C)(C)C [Example 21, N-[4-(6-Chloro-pyrimidin-4-yloxy)-phenyl]-N′-[4-(methyl-^tertbutyl-amino-methyl)-3-trifluoromethyl-phenyl]-urea] | 1800 nM
CNc1cc(Oc2ccc(NC(=O)Nc3ccc(CN(C)C(C)(C)C)c(C(F)(F)F)c3)cc2)ncn1 [Example 34a.1] | 1100 nM
CN(Cc1ccc(NC(=O)Nc2ccc(Oc3cc(N)ncn3)cc2)cc1C(F)(F)F)C(C)(C)C [Example 34a.3] | 830 nM
CNc1cc(Oc2ccc(NC(=O)Nc3ccc(CN4CCC4)c(C(F)(F)F)c3)cc2)ncn1 [Example 34b.1] | 360 nM
Nc1cc(Oc2ccc(NC(=O)Nc3ccc(CN4CCC4)c(C(F)(F)F)c3)cc2)ncn1 [Example 34b.3] | 370 nM
CNc1cc(Oc2ccc(NC(=O)Nc3ccc(CN4CCN(C(C)(C)C)CC4)c(C(F)(F)F)c3)cc2)ncn1 [Example 34c.1] | 540 nM
CC(C)(C)N1CCN(Cc2ccc(NC(=O)Nc3ccc(Oc4cc(N)ncn4)cc3)cc2C(F)(F)F)CC1 [Example 34c.3] | 350 nM
CNc1cc(Oc2ccc(NC(=O)Nc3ccc(Cn4cnc(C)c4C)c(C(F)(F)F)c3)cc2)ncn1 [Example 34d.1] | 670 nM
Cc1ncn(Cc2ccc(NC(=O)Nc3ccc(Oc4cc(N)ncn4)cc3)cc2C(F)(F)F)c1C [Example 34d.3] | 290 nM
CNc1cc(Oc2ccc(NC(=O)Nc3ccc(Cn4ccnc4C)c(C(F)(F)F)c3)cc2)ncn1 [Example 34e.1] | 160 nM
Cc1nccn1Cc1ccc(NC(=O)Nc2ccc(Oc3cc(N)ncn3)cc2)cc1C(F)(F)F [Example 34e.3] | 79 nM

SMILES | IC50
CCN1CCN(Cc2ccc(NC(=O)Nc3ccc(Oc4cc(NC)ncn4)cc3)cc2C)CC1 [Example 34g.1] | 300 nM
CCN1CCN(Cc2ccc(NC(=O)Nc3ccc(Oc4cc(N)ncn4)cc3)cc2C)CC1 [Example 34g.3] | 378 nM
CNc1cc(Oc2ccc(NC(=O)Nc3ccc(CN4CCCC4)c(C(F)(F)F)c3)cc2)ncn1 [Example 34j.1] | 250 nM
Nc1cc(Oc2ccc(NC(=O)Nc3ccc(CN4CCCC4)c(C(F)(F)F)c3)cc2)ncn1 [Example 34j.3] | 283 nM
CNc1cc(Oc2ccc(NC(=O)Nc3ccc(CN4CCOCC4)c(C(F)(F)F)c3)cc2)ncn1 [Example 34k.1] | 130 nM
Nc1cc(Oc2ccc(NC(=O)Nc3ccc(CN4CCOCC4)c(C(F)(F)F)c3)cc2)ncn1 [Example 34k.3] | 100 nM
CNc1cc(Oc2ccc(NC(=O)Nc3ccc(CN(C)C)c(C(F)(F)F)c3)cc2)ncn1 [Example 34l.1] | 620 nM
CCN(CC)Cc1ccc(NC(=O)Nc2ccc(Oc3cc(NC)ncn3)cc2)cc1C(F)(F)F [Example 34m.1] | 400 nM
CCN(CC)Cc1ccc(NC(=O)Nc2ccc(Oc3cc(N)ncn3)cc2)cc1C(F)(F)F [Example 34m.3] | 200 nM
CN(C)CCCN(C)Cc1ccc(NC(=O)Nc2ccc(Oc3cc(N)ncn3)cc2)cc1C(F)(F)F [Example 34n.3] | 200 nM
CNc1cc(Oc2ccc(NC(=O)Nc3ccc(CN4CCN(Cc5ccc(OC)cc5)CC4)c(C(F)(F)F)c3)cc2)ncn1 [Example 34p.1] | 590 nM
Nc1cc(Oc2ccc(NC(=O)Nc3ccc(N4CCC(N5CCCCC5)CC4)c(C(F)(F)F)c3)cc2)ncn1 [Example 34s.2] | 240 nM
CC(C)(C)CN1CCN(Cc2ccc(NC(=O)Nc3ccc(Oc4cc(N)ncn4)cc3)cc2C(F)(F)F)CC1 [Example 34t.2] | 290 nM
CC(C)(C)CN1CCN(c2ccc(NC(=O)Nc3ccc(Oc4cc(N)ncn4)cc3)cc2C(F)(F)F)CC1 [Example 34u.2] | 1500 nM
NC(=O)c1cc(NC(=O)Nc2ccc(Oc3cc(N)ncn3)cc2)cc(C(F)(F)F)c1 [Example 38, 3-{3-[4-(6-Amino-pyrimidin-4-yloxy)-phenyl]-ureido}-5-trifluoromethyl-benzamide] | 354 nM
CNC(=O)c1cc(NC(=O)Nc2ccc(Oc3cc(NC)ncn3)cc2)cc(C(F)(F)F)c1 [Example 41, 3-{3-[4-(6-Methylamino-pyrimidin-4-yloxy)-phenyl]-ureido}-N-methyl-5-trifluoromethyl-benzamide] | 420 nM
CNC(=O)c1cc(NC(=O)Nc2ccc(Oc3cc(N)ncn3)cc2)cc(C(F)(F)F)c1 [Example 43, 3-{3-[4-(6-Amino-pyrimidin-4-yloxy)-phenyl]-ureido}-N-methyl-5-trifluoromethyl-benzamide] | 160 nM

From patent US20080312192A1, “Diaryl Urea Derivatives in the Treatment of Protein Kinase Dependent Diseases” (priority 2003, published 2008)
